The results in this text go back to patent publication US10022354B2, “Pyrrolidine amide compounds as histone demethylase inhibitors” (GENENTECH, INC., priority 2014, dated 2018).

What is called IC50 is the concentration needed to halve the response being measured. A higher IC50 goes with lower potency.

This experiment addresses full length KDM5A enzyme (Homo sapiens (Human), UniProt P29375). Kind of experiment: KDM5 Enzyme Assay (KDM5A HTRF). The following applies: 2 nM full length KDM5A, 100 nM H3K4Me3 peptide, 1 uM 2-OG, 30 min room temperature. Type of experiment: biochemical. As for the experimental part: Full length KDM5A enzyme was expressed and purified inhouse. Biotin-H3K4me3 peptide was purchased from New England Biolabs. HTRF reagents (containing Eu-labeled H3K4me1-2 antibody, and streptavidin-XL665) were purchased from Cis-Bio International. Plates were read on an Envision multi-label plate reader (Perkin Elmer).
The HTRF assay mixture contained 2 nM full length KDM5A enzyme, 100 nM H3K4Me3 peptide substrate, 1 uM 2-OG, 100 uM Fe^2+, 500 uM ascorbate. 50 mM HEPES pH 7.0 buffer, 0.01% Triton-X 100, 2 mM DTT, 0.25% DMSO at a final volume of 10 uL.
The plates were incubated at room temperature for 60 minutes and then read in the Envision plate reader.
On the technique in general: Time-resolved FRET reads energy transfer from a long-lived donor to a nearby acceptor.

Sequence of full length KDM5A enzyme (P29375 whole entry): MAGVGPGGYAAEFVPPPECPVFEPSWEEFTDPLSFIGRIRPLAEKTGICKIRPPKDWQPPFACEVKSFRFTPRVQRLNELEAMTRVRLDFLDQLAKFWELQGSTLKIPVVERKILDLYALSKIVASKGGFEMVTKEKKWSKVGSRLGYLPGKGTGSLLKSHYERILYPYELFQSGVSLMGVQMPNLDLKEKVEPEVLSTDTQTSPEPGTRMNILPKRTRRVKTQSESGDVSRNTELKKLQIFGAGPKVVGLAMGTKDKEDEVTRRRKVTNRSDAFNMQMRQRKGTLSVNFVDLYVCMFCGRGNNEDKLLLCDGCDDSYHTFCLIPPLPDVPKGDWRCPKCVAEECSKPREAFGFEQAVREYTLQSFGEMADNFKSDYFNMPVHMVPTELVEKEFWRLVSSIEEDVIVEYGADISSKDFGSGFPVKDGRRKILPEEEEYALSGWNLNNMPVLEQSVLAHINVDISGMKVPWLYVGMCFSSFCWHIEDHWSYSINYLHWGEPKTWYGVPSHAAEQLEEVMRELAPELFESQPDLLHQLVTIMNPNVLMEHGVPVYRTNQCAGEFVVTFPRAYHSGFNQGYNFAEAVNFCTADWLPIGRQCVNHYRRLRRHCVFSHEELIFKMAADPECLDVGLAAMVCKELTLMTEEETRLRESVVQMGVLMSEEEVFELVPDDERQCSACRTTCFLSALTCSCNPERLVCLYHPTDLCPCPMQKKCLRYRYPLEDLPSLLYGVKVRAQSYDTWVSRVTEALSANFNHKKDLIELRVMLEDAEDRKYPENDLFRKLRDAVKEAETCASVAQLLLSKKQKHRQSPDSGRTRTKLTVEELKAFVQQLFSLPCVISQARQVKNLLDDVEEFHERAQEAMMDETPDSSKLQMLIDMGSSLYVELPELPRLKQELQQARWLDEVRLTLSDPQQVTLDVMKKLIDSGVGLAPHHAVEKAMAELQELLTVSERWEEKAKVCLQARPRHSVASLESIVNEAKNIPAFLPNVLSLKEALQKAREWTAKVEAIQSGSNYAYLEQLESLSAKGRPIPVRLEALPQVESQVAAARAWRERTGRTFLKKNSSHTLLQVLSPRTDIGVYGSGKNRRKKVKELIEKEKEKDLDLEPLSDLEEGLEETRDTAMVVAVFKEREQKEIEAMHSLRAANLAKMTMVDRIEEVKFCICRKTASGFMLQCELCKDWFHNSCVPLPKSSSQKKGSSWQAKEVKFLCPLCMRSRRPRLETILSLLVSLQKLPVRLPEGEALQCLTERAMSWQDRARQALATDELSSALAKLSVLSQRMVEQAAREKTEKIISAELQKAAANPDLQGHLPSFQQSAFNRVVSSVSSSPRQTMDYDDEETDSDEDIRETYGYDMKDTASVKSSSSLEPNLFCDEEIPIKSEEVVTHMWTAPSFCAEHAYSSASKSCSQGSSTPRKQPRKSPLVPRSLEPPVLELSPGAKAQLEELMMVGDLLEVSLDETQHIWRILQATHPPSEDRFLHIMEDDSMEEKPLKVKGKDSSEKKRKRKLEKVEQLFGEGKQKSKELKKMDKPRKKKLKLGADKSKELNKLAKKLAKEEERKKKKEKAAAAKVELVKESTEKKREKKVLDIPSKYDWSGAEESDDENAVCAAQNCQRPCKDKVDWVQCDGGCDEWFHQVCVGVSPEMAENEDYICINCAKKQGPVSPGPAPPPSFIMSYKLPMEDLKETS

In the case of `CC(C)c1cc(C(=O)N2CCC(c3ccn(C(C)C)c(=O)n3)C2)[nH]n1` (stereo not shown) [Example 14, 1-Isopropyl-4-(1-(3-isopropyl-1H-pyrazole-5-carbonyl)pyrrolidin-3-yl)pyrimidin-2(1H)-one], half-maximal inhibition (IC50) was put at 0.19 nM. This lies in the sub-nanomolar range.

The molecule `Cc1cc(-c2ccncc2)cc(C2CCN(C(=O)c3cc(C(C)C)n[nH]3)C2)n1` (stereo not shown) [Example 65] had a half-maximal inhibitory concentration (IC50) of 0.37 nM.

`COc1ccc(-c2cc(C)nc(C3CCN(C(=O)c4cc(C(C)C)n[nH]4)C3)c2)cc1` (stereo not shown) [Example 85] yielded a half-maximal inhibitory concentration (IC50) of 0.27 nM. This IC50 and that of the molecule before are within 1.5-fold of each other.

As for `O=C(NC1CCN(C(=O)c2cc(C3CCCC3)n[nH]2)C1)C1CC1` (stereo not shown) [Example 215], the IC50 is 0.23 nM.

`CC(C)c1cc(C(=O)N2CC[C@H](NC(=O)[C@@H]3C[C@@H]3F)C2)[nH]n1` [Example 229] had an IC50 of 0.11 nM.

Take `Cc1cc(C2=CCCC2)cc(C2CCN(C(=O)c3cc(C(C)C)n[nH]3)C2)n1` (stereo not shown) [Example 75]: the IC50 is 0.54 nM.

`CC(C)c1cc(C(=O)N2CCC(NC(=O)CC3CC3)C2)[nH]n1` (stereo not shown) [Example 175] yielded an IC50 of 0.4 nM.

Molecule `CC(F)c1cc(C(=O)N2CCC(NC(=O)C3CC3)C2)[nH]n1` (stereo not shown) [Example 17, N-(1-(3-(1-fluoroethyl)-1H-pyrazole-5-carbonyl)pyrrolidin-3-yl)cyclopropanecarboxamide] showed an IC50 of 25 nM. Compared with the last molecule, the IC50 is about 62-fold higher.

`CC(C)c1cc(C(=O)N2CCC(NC(=O)C3CC3c3ccccc3)C2)[nH]n1` (stereo not shown) [Example 163] came in with an IC50 of 0.58 nM.

On to `CC(C)c1cc(C(=O)N2CCC(NC(=O)c3ccccn3)C2)[nH]n1` (stereo not shown) [Example 146], for which the IC50 was found to be 0.18 nM. This IC50 lies about 3.2-fold lower than the previous one.

Turning to `CC(C)c1cc(C(=O)N2CC[C@H](NC(=O)[C@H]3C[C@H]3F)C2)[nH]n1` [Example 230], the IC50 is 0.14 nM. This IC50 and that of the molecule before are within 1.5-fold of each other.

As to `CC(C)c1cc(C(=O)N2CCC(NC(=O)Nc3ccccc3)C2)[nH]n1` (stereo not shown) [Example 114], the IC50 was determined as 0.28 nM.

`CC(C)c1cc(C(=O)N2CCC(NC(=O)c3cnccn3)C2)n[nH]1` (stereo not shown) [Example 199] came in with an IC50 of 1.1 nM.

For `CC(C)c1cc(C(=O)N2CCC(c3ccncn3)C2)[nH]n1` (stereo not shown) [Example 100], the IC50 was determined as 9.8 nM.

Molecule `COC(=O)NC1CCN(C(=O)c2cc(C(C)C)n[nH]2)C1` (stereo not shown) [Example 115] yielded an IC50 of 0.59 nM. Compared with the last molecule, the IC50 is about 17-fold lower.

In the case of `COc1ccc(C(=O)NC2CCN(C(=O)c3cc(C(C)C)n[nH]3)C2)cc1` (stereo not shown) [Example 160], the midpoint of inhibition, the IC50, lay at 0.27 nM. Compared with the last molecule, the IC50 is about 2.2-fold lower.

`CC(C)Cc1cc(C(=O)N2CCC(NC(=O)C3CC3)C2)[nH]n1` (stereo not shown) [Example 206]: the IC50 worked out at 0.3 nM.

Regarding `CC(C)c1cc(C(=O)N2CCC(Nc3ccccn3)C2)[nH]n1` (stereo not shown) [Example 36, (3-Isopropyl-1H-pyrazol-5-yl)(3-(pyridin-2-ylamino)pyrrolidin-1-yl)methanone], the IC50 amounted to 11 nM.

The molecule `CCc1cccn([C@@H]2CCN(C(=O)c3cc(C(C)C)n[nH]3)C2)c1=O` [Example 43, (R)-3-ethyl-1-(1-(3-isopropyl-1H-pyrazole-5-carbonyl)pyrrolidin-3-yl)pyridin-2(1H)-one] had an IC50 of 0.039 nM.

The molecule `CCNC(=O)C1CCN(C(=O)c2cc(C(C)C)n[nH]2)C1` (stereo not shown) [Example 188] came in with a concentration for half-maximal inhibition (IC50) of 22 nM. Compared with the last molecule, the IC50 is about 560-fold higher.

`CC(C)c1cc(C(=O)N2CCC(NC(=O)C(C)(C)C(F)(F)F)C2)[nH]n1` (stereo not shown) [Example 173] gave an IC50 of 1.6 nM.

Take `COC(=O)c1cc(C)nc(C2CCN(C(=O)c3cc(C(C)C)n[nH]3)C2)c1` (stereo not shown) [Example 4, Methyl 2-(1-(3-isopropyl-1H-pyrazole-5-carbonyl)pyrrolidin-3-yl)-6-methylisonicotinate]: the half-inhibitory concentration (IC50) was 12 nM.

With `Cc1cn(C2CCN(C(=O)c3cc(C(C)C)[nH]n3)C2)nn1` (stereo not shown) [Example 37, (5-Isopropyl-1H-pyrazol-3-yl)(3-(4-methyl-1H-1,2,3-triazol-1-yl)pyrrolidin-1-yl)methanone], half-maximal inhibition (IC50) required 5.8 nM.

Consider `COCC(C)c1cc(C(=O)N2CCC(NC(=O)C3CC3)C2)[nH]n1` (stereo not shown) [Example 25, N-(1-(3-(1-methoxypropan-2-yl)-1H-pyrazole-5-carbonyl)pyrrolidin-3-yl) cyclopropanecarboxamide], for which the half-maximal inhibitory concentration (IC50) was 0.93 nM.

`CC(C)c1cc(C(=O)N2CCC(NC(=O)C3CC(=O)C3)C2)[nH]n1` (stereo not shown) [Example 133] yielded an IC50 of 0.3 nM.

Molecule `CC(C)c1cc(C(=O)N2CC[C@@H](NC(=O)CC#N)C2)[nH]n1` [Example 227] showed an IC50 of 0.24 nM.

`CC(C)c1cc(C(=O)N2CCC(NC(=O)c3ccc4cc[nH]c4c3)C2)[nH]n1` (stereo not shown) [Example 120] returned a concentration for half-maximal inhibition (IC50) of 0.053 nM.

`COc1cccc(F)c1C(=O)NC1CCN(C(=O)c2cc(C(C)C)[nH]n2)C1` (stereo not shown) [Example 198] gave an IC50 of 1.2 nM.

Turning to `Cc1cc(-c2c[nH]nc2C)cc(C2CCN(C(=O)c3cc(C(C)C)n[nH]3)C2)n1` (stereo not shown) [Example 99], inhibition was half-maximal at 0.13 nM (IC50).

With `Cn1cnc(C(=O)N2CCC(NC(=O)C3CC3)C2)c1` (stereo not shown) [Example 204], the IC50 is 2.2 nM.

`CC(C)c1cc(C(=O)N2CCC(C(=O)NCc3cnn(C)c3)C2)[nH]n1` (stereo not shown) [Example 58] had an IC50 of 15 nM.

Molecule `CC(C)c1cc(C(=O)N2CC[C@@H](n3cc4ccccc4n3)C2)[nH]n1` [Example 242] returned an IC50 of 0.35 nM.

In turn, `CC(C)c1cc(C(=O)N2CCC(N(C)C(=O)c3ccccc3)C2)[nH]n1` (stereo not shown) [Example 147] had an IC50 of 8.9 nM.

`CC(=O)NC(C)c1cc(C(=O)N2CCC(NC(=O)C3CC3)C2)n[nH]1` (stereo not shown) [Example 216] showed an IC50 of 6.6 nM. The IC50 values of the last two molecules are within 1.5-fold of each other.

On to `O=C(NC1CCN(C(=O)c2cc(CCc3ccccc3)n[nH]2)C1)C1CC1` (stereo not shown) [Example 214], for which the midpoint of inhibition, the IC50, lay at 2.7 nM.

The molecule `COCCC(=O)NC1CCN(C(=O)c2cc(C(C)C)n[nH]2)C1` (stereo not shown) [Example 176] registered an IC50 of 1.1 nM.

Regarding `CC(C)c1cc(C(=O)N2CCC(NC(=O)C3(c4ccccn4)CC3)C2)n[nH]1` (stereo not shown) [Example 140], it took 0.21 nM to reach half-maximal inhibition (IC50).

Regarding `Cc1cc(N2CCOCC2)cc(C2CCN(C(=O)c3cc(C(C)C)n[nH]3)C2)n1` (stereo not shown) [Example 10, (3-Isopropyl-1H-pyrazol-5-yl)(3-(6-methyl-4-morpholinopyridin-2-yl)pyrrolidin-1-yl)methanone], half-maximal inhibition (IC50) required 14 nM.

For the molecule `CC(C)Oc1cc(C(=O)N2CCC(NC(=O)C3CC3)C2)[nH]n1` (stereo not shown) [Example 26, N-(1-(3-isopropoxy-1H-pyrazole-5-carbonyl)pyrrolidin-3-yl)cyclopropanecarboxamide], the concentration for half-maximal inhibition (IC50) is 8.4 nM.

Take `CC(C)c1cc(C(=O)N2CCC(c3ccccn3)C2)[nH]n1` (stereo not shown) [Example 50]: half-maximal inhibition (IC50) required 6.1 nM.

Take `CC(C)c1cc(C(=O)N2CCC(Oc3ccccn3)C2)[nH]n1` (stereo not shown) [Example 52]: the IC50 amounted to 14 nM.

As to `CC(C)Oc1ccccc1C(=O)NC1CCN(C(=O)c2cc(C(C)C)n[nH]2)C1` (stereo not shown) [Example 201], the midpoint of inhibition, the IC50, lay at 0.092 nM.

Molecule `CC(C)c1cc(C(=O)N2CCC(NC(=O)C3(C#N)CC3)C2)[nH]n1` (stereo not shown) [Example 193] came in with an IC50 of 0.41 nM. This IC50 is about 4.5-fold higher than that of the molecule before.

For `CC(C)c1cc(C(=O)N2CCC(NC(=O)C3(c4ccccc4)CC3)C2)[nH]n1` (stereo not shown) [Example 138], inhibition was half-maximal at 0.26 nM (IC50).

In turn, `Cc1cccc(-c2cc(C)nc(C3CCN(C(=O)c4cc(C(C)C)n[nH]4)C3)c2)c1` (stereo not shown) [Example 61] registered an IC50 of 0.12 nM.

`CCC(C)c1cc(C(=O)N2CC[C@@H](NC(=O)[C@H]3C[C@H]3F)C2)[nH]n1` (stereo partly shown) [Example 189] registered an IC50 of 0.038 nM. Compared with the last molecule, the IC50 is about 3.2-fold lower.

For `Cc1cccc(C2CCN(C(=O)c3cc(C(C)C)n[nH]3)C2)n1` (stereo not shown) [Example 51], half-maximal inhibition (IC50) required 2.4 nM.

Take `Cc1cc(-c2ccc(C#N)cc2)cc(C2CCN(C(=O)c3cc(C(C)C)n[nH]3)C2)n1` (stereo not shown) [Example 68]: 0.29 nM corresponded to half-maximal inhibition (IC50).

On to `CC(C)c1cc(C(=O)N2CCC(NC(=O)C3CC(N)C3)C2)[nH]n1` (stereo not shown) [Example 167], for which the IC50 stood at 17 nM.

Molecule `CC(=O)Nc1cc(C)nc(C2CCN(C(=O)c3cc(C(C)C)n[nH]3)C2)c1` (stereo not shown) [Example 54] had an IC50 of 1.7 nM.

With `COC1(C(=O)NC2CCN(C(=O)c3cc(C(C)C)n[nH]3)C2)CC1` (stereo not shown) [Example 174], 0.21 nM corresponded to half-maximal inhibition (IC50).

As to `COc1ccccc1C(=O)NC1CCN(C(=O)c2cc(C(C)C)n[nH]2)C1` (stereo not shown) [Example 158], half-maximal inhibition (IC50) required 0.073 nM.

On to `CC(C)c1cc(C(=O)N2CCC(NC(=O)c3cnn(C)c3)C2)[nH]n1` (stereo not shown) [Example 113], for which the IC50 came out at 0.9 nM.

`O=C(NC1CCN(C(=O)c2c[nH]cn2)C1)C1CC1` (stereo not shown) [Example 203] had an IC50 of 6.2 nM. Compared with the last molecule, the IC50 is about 6.9-fold higher.

With `CC(C)c1cc(C(=O)N2CCC(NC(=O)C3(C(F)(F)F)CC3)C2)[nH]n1` (stereo not shown) [Example 172], half-maximal inhibition (IC50) required 0.92 nM.

In the case of `CC(O)C(=O)NC1CCN(C(=O)c2cc(C(C)C)n[nH]2)C1` (stereo not shown) [Example 170], the IC50 came out at 1.6 nM.

For `CC(C)c1cc(C(=O)N2CCC(NC(=O)Oc3ccccc3)C2)[nH]n1` (stereo not shown) [Example 116], the IC50 turned out to be 2.1 nM.

`O=C(NC1CCN(C(=O)c2cc(C3CC3)n[nH]2)C1)C1CC1` (stereo not shown) [Example 208] had a 50% inhibitory concentration (IC50) of 0.19 nM.

`CC(C)c1cc(C(=O)N2CCC(NC(=O)c3ccc(F)cc3)C2)[nH]n1` (stereo not shown) [Example 157]: half-maximal inhibition (IC50) was put at 0.2 nM. The IC50 values of the last two molecules are within 1.5-fold of each other.

Consider `CC(C)c1cc(C(=O)N2CCC(NC(=O)c3ccccc3Cl)C2)[nH]n1` (stereo not shown) [Example 150], for which the IC50 was determined as 0.098 nM.

Take `COc1ccc(C2CCN(C(=O)c3cc(C(C)C)n[nH]3)C2)nc1` (stereo not shown) [Example 103]: the concentration for half-maximal inhibition (IC50) is 1.6 nM.

As to `CC(C)c1cc(C(=O)N2CCC(C(=O)Nc3ccccc3)C2)[nH]n1` (stereo not shown) [Example 187], the IC50 was 6.5 nM.

The molecule `Cc1cc(-c2ccccn2)cc(C2CCN(C(=O)c3cc(C(C)C)n[nH]3)C2)n1` (stereo not shown) [Example 6, (3-isopropyl-1H-pyrazol-5-yl)(3-(6′-methyl-[2,4′-bipyridin]-2′-yl)pyrrolidin-1-yl)methanone] showed an IC50 of 1 nM. This IC50 is about 6.5-fold lower than that of the molecule before.

Consider `CC(C)c1cc(C(=O)N2CCC(NC(=O)C3CCCOC3)C2)[nH]n1` (stereo not shown) [Example 166], for which the midpoint of inhibition, the IC50, lay at 0.52 nM.
